This data set is described as follows: Purity and stability test (content by HPLC after sealed storage). It is filed as physicochemical. Conditions: for Content of the intial sample: HPLC content before storage; for Content of the sample stored at 25° C. for 14 days: sealed storage at 25° C. for 14 days, content by HPLC. As for the experimental part:
The purity was detected by high performance liquid chromatography (HPLC) method. HPLC method was performed according to the method reported in Journal of Industrial Microbiology & Biotechnology (2001), 26, 216-221; the normal phase HPLC is employed:
silica gel column: 4.6 mm*250 mm;
Mobile phase: ethyl acetate:methanol:water=84:9:7 (V/V/V);
Detection wavelength: 278 nm.
The purity and stability of samples prepared in the comparative example and examples 1-4 were compared. The method is described as follows:
The samples from comparative-example, example 1, example 2, example 3 and example 4 were obtained separately and kept at 25° C. for 14 days in sealed storage. And then the contents of the samples were tested by HPLC.

As for `CCC(C)CC(C)CCCCCCCCC(=O)NC1CC(O)[C@@H](O)NC(=O)[C@H]2[C@@H](O)CCN2C(=O)[C@H](C(O)CC(N)=O)NC(=O)C(C(O)C(O)c2ccc(O)cc2)NC(=O)[C@@H]2C[C@@H](O)CN2C(=O)[C@H](C(C)O)NC1=O` (some centres unmarked) [Comparative example, reference compound], the Content of the intial sample was determined as 97.7% and the Content of the sample stored at 25° C. for 14 days stood at 95.6%.
The corresponding values for `CCC(C)CC(C)CCCCCCCCC(=O)NC1CC(O)[C@@H](O)NC(=O)[C@H]2[C@@H](O)CCN2C(=O)[C@H](C(O)CC(N)=O)NC(=O)C(C(O)C(O)c2ccc(O)cc2)NC(=O)[C@@H]2C[C@@H](O)CN2C(=O)[C@H](C(C)O)NC1=O` (some centres unmarked) [Example 4] are 99.8% and 99.5%.
In the same order, the values of `CCC(C)CC(C)CCCCCCCCC(=O)NC1CC(O)[C@@H](O)NC(=O)[C@H]2[C@@H](O)CCN2C(=O)[C@H](C(O)CC(N)=O)NC(=O)C(C(O)C(O)c2ccc(O)cc2)NC(=O)[C@@H]2C[C@@H](O)CN2C(=O)[C@H](C(C)O)NC1=O` (some centres unmarked) [Example 1] are 96.1% and 93.5%.
In the case of `CCC(C)CC(C)CCCCCCCCC(=O)NC1CC(O)[C@@H](O)NC(=O)[C@H]2[C@@H](O)CCN2C(=O)[C@H](C(O)CC(N)=O)NC(=O)C(C(O)C(O)c2ccc(O)cc2)NC(=O)[C@@H]2C[C@@H](O)CN2C(=O)[C@H](C(C)O)NC1=O` (some centres unmarked) [Example 3], the Content of the intial sample came to 99.8% and the Content of the sample stored at 25° C. for 14 days was 99.5%.
As to `CCC(C)CC(C)CCCCCCCCC(=O)NC1CC(O)[C@@H](O)NC(=O)[C@H]2[C@@H](O)CCN2C(=O)[C@H](C(O)CC(N)=O)NC(=O)C(C(O)C(O)c2ccc(O)cc2)NC(=O)[C@@H]2C[C@@H](O)CN2C(=O)[C@H](C(C)O)NC1=O` (some centres unmarked) [crystal B of the compound of formula I], the “stability compared with crystal A and amorphous powder” value (25° C., 14 days, sealed storage) is “better stability”.
`CCC(C)CC(C)CCCCCCCCC(=O)NC1CC(O)[C@@H](O)NC(=O)[C@H]2[C@@H](O)CCN2C(=O)[C@H](C(O)CC(N)=O)NC(=O)C(C(O)C(O)c2ccc(O)cc2)NC(=O)[C@@H]2C[C@@H](O)CN2C(=O)[C@H](C(C)O)NC1=O` (some centres unmarked) [Example 2] returned a Content of the intial sample of 99.8% and a Content of the sample stored at 25° C. for 14 days of 99.6%.

Values taken from patent publication US8969309B2, “Crystal of peptide substance as well as the preparation method and use thereof” (Shanghai Techwell Biopharmaceutical Co., Ltd., priority 2010, dated 2015).
